Source: PubChem BioAssay AID1963841 (Molecular Pharmacology Branch, DTP, NCI, 2024)

Tested on: 439559-082-T-J2-PDC spheroid viability
Experiment: Anticancer human tumor 439559-082-T-J2-PDC patient-derived colon adenocarcinoma cell line growth inhibition [POLQ]
Conditions: spheroids with HUVEC and MSC; for IC50: curve of first compound; for viability, T/C: stronger effect = lower value
Outline: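 Three-cell-type spheroids modelling solid tumor plus stroma served as the readout system; POL inhibitors were tested individually and in combination, concentration ranges set by clinical Cmax where known.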

[1] = second compound 0.0316 µM, first compound 0.0316 µM
[2] = second compound 0.0316 µM, first compound 0.1 µM
[3] = second compound 0.0316 µM, first compound 0.316 µM
[4] = second compound 0.0316 µM, first compound 1 µM
[5] = second compound 0.0316 µM, first compound 3.16 µM
[6] = second compound 0.0316 µM, first compound 10 µM
[7] = second compound 0.1 µM, first compound 0.0316 µM
[8] = second compound 0.1 µM, first compound 0.1 µM
[9] = second compound 0.1 µM, first compound 0.316 µM
[10] = second compound 0.1 µM, first compound 1 µM
[11] = second compound 0.1 µM, first compound 3.16 µM
[12] = second compound 0.1 µM, first compound 10 µM
[13] = second compound 0.316 µM, first compound 0.0316 µM
[14] = second compound 0.316 µM, first compound 0.1 µM
[15] = second compound 0.316 µM, first compound 0.316 µM
[16] = second compound 0.316 µM, first compound 1 µM
[17] = second compound 0.316 µM, first compound 3.16 µM
[18] = second compound 0.316 µM, first compound 10 µM
[19] = second compound 1 µM, first compound 0.0316 µM
[20] = second compound 1 µM, first compound 0.1 µM
[21] = second compound 1 µM, first compound 0.316 µM
[22] = second compound 1 µM, first compound 1 µM
[23] = second compound 1 µM, first compound 3.16 µM
[24] = second compound 1 µM, first compound 10 µM
[25] = second compound 3.16 µM, first compound 0.0316 µM
[26] = second compound 3.16 µM, first compound 0.1 µM
[27] = second compound 3.16 µM, first compound 0.316 µM
[28] = second compound 3.16 µM, first compound 1 µM
[29] = second compound 3.16 µM, first compound 3.16 µM
[30] = second compound 3.16 µM, first compound 10 µM
[31] = second compound 10 µM, first compound 0.0316 µM
[32] = second compound 10 µM, first compound 0.1 µM
[33] = second compound 10 µM, first compound 0.316 µM
[34] = second compound 10 µM, first compound 1 µM
[35] = second compound 10 µM, first compound 3.16 µM
[36] = second compound 10 µM, first compound 10 µM
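Further: spheroids exposed to compounds for seven days before readout.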
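Wherever viability, T/C is given: 100% = DMSO vehicle control viability.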

## O=C(Nc1ccc(O)c(NS(=O)(=O)c2ccc(F)cc2)c1)c1ccc(-c2ccccc2)cc1 + Nc1ccc(C#CCN(C(=O)Cc2ncc(C(F)(F)F)cc2C(F)(F)F)c2ccc(F)cc2)nn1
Second compound 0.0316 µM
  IC50: > 10000 nM
Second compound 0.1 µM
  IC50: > 10000 nM
Second compound 0.316 µM
  IC50: > 10000 nM
Second compound 1 µM
  IC50: > 10000 nM
Second compound 3.16 µM
  IC50: > 10000 nM
Second compound 10 µM
  IC50: > 10000 nM
[1]
  viability, T/C: 93%
[2]
  viability, T/C: 97.5%
[3]
  viability, T/C: 98.8%
[4]
  viability, T/C: 93.3%
[5]
  viability, T/C: 96.3%
[6]
  viability, T/C: 103%
[7]
  viability, T/C: 99%
[8]
  viability, T/C: 103%
[9]
  viability, T/C: 92.9%
[10]
  viability, T/C: 97%
[11]
  viability, T/C: 111%
[12]
  viability, T/C: 106%
[13]
  viability, T/C: 105%
[14]
  viability, T/C: 104%
[15]
  viability, T/C: 94.8%
[16]
  viability, T/C: 96.9%
[17]
  viability, T/C: 87.9%
[18]
  viability, T/C: 92.5%
[19]
  viability, T/C: 93.5%
[20]
  viability, T/C: 103%
[21]
  viability, T/C: 89.7%
[22]
  viability, T/C: 90.7%
[23]
  viability, T/C: 99.6%
[24]
  viability, T/C: 96.8%
[25]
  viability, T/C: 89.6%
[26]
  viability, T/C: 107%
[27]
  viability, T/C: 100%
[28]
  viability, T/C: 99.6%
[29]
  viability, T/C: 94.2%
[30]
  viability, T/C: 91.3%
[31]
  viability, T/C: 114%
[32]
  viability, T/C: 101%
[33]
  viability, T/C: 102%
[34]
  viability, T/C: 91.5%
[35]
  viability, T/C: 113%
[36]
  viability, T/C: 101%

## CC1COCCN1c1cc(-c2ccnn2C)c2ccnc(-c3ccn[nH]3)c2n1 (stereo unspecified) + Cc1cccc(N(C)C(=O)C2C(O)CCN2c2nc(C)cc(C(F)(F)F)c2C#N)c1
Second compound 0.0316 µM
  IC50: 557 nM
Second compound 0.1 µM
  IC50: 397 nM
Second compound 0.316 µM
  IC50: 311 nM
Second compound 1 µM
  IC50: 478 nM
Second compound 3.16 µM
  IC50: 291 nM
Second compound 10 µM
  IC50: 841 nM
[1]
  viability, T/C: 91%
[2]
  viability, T/C: 79.8%
[3]
  viability, T/C: 50.9%
[4]
  viability, T/C: 49.7%
[5]
  viability, T/C: 53.6%
[6]
  viability, T/C: 43.6%
[7]
  viability, T/C: 95.5%
[8]
  viability, T/C: 81.1%
[9]
  viability, T/C: 51.2%
[10]
  viability, T/C: 44.3%
[11]
  viability, T/C: 49.4%
[12]
  viability, T/C: 43.3%
[13]
  viability, T/C: 87.7%
[14]
  viability, T/C: 80.3%
[15]
  viability, T/C: 49.5%
[16]
  viability, T/C: 47.8%
[17]
  viability, T/C: 51.6%
[18]
  viability, T/C: 40.8%
[19]
  viability, T/C: 92.9%
[20]
  viability, T/C: 76.9%
[21]
  viability, T/C: 52%
[22]
  viability, T/C: 46.2%
[23]
  viability, T/C: 51.4%
[24]
  viability, T/C: 37.4%
[25]
  viability, T/C: 89%
[26]
  viability, T/C: 76.8%
[27]
  viability, T/C: 47.2%
[28]
  viability, T/C: 46.7%
[29]
  viability, T/C: 55.8%
[30]
  viability, T/C: 42%
[31]
  viability, T/C: 82.3%
[32]
  viability, T/C: 72.3%
[33]
  viability, T/C: 50.6%
[34]
  viability, T/C: 49.7%
[35]
  viability, T/C: 49.8%
[36]
  viability, T/C: 36.8%

## CCc1c2c(nc3ccc(O)cc13)-c1cc3c(c(=O)n1C2)COC(=O)[C@]3(O)CC + Nc1ccc(C#CCN(C(=O)Cc2ncc(C(F)(F)F)cc2C(F)(F)F)c2ccc(F)cc2)nn1
Second compound 0.0316 µM
  IC50: > 1000 nM
Second compound 0.1 µM
  IC50: > 1000 nM
Second compound 0.316 µM
  IC50: > 1000 nM
Second compound 1 µM
  IC50: > 1000 nM
Second compound 3.16 µM
  IC50: 875 nM
Second compound 10 µM
  IC50: 840 nM
Second compound 0.0316 µM, first compound 0.00316 µM
  viability, T/C: 102%
Second compound 0.0316 µM, first compound 0.01 µM
  viability, T/C: 79.3%
[1]
  viability, T/C: 75.1%
[2]
  viability, T/C: 83.4%
[3]
  viability, T/C: 81.6%
[4]
  viability, T/C: 52.8%
Second compound 0.1 µM, first compound 0.00316 µM
  viability, T/C: 91.4%
Second compound 0.1 µM, first compound 0.01 µM
  viability, T/C: 79.4%
[7]
  viability, T/C: 71%
[8]
  viability, T/C: 73.1%
[9]
  viability, T/C: 75.7%
[10]
  viability, T/C: 55.1%
Second compound 0.316 µM, first compound 0.00316 µM
  viability, T/C: 88.5%
Second compound 0.316 µM, first compound 0.01 µM
  viability, T/C: 80.6%
[13]
  viability, T/C: 63.4%
[14]
  viability, T/C: 74.9%
[15]
  viability, T/C: 90.4%
[16]
  viability, T/C: 53.1%
Second compound 1 µM, first compound 0.00316 µM
  viability, T/C: 93.3%
Second compound 1 µM, first compound 0.01 µM
  viability, T/C: 81%
[19]
  viability, T/C: 75%
[20]
  viability, T/C: 68.2%
[21]
  viability, T/C: 86%
[22]
  viability, T/C: 50.6%
Second compound 3.16 µM, first compound 0.00316 µM
  viability, T/C: 87.5%
Second compound 3.16 µM, first compound 0.01 µM
  viability, T/C: 81.2%
[25]
  viability, T/C: 69.2%
[26]
  viability, T/C: 72.9%
[27]
  viability, T/C: 81.5%
[28]
  viability, T/C: 46.5%
Second compound 10 µM, first compound 0.00316 µM
  viability, T/C: 92.6%
Second compound 10 µM, first compound 0.01 µM
  viability, T/C: 74.4%
[31]
  viability, T/C: 76.8%
[32]
  viability, T/C: 73.9%
[33]
  viability, T/C: 80%
[34]
  viability, T/C: 44.8%
